In PubChem BioAssay (NCI):
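Tested at 5 concentrations; 48 h exposure; 96-well plates; endpoints linearly interpolated, else capped at highest concentration. Here, GI50 denotes the concentration required for 50% inhibition of growth. At the TGI there is no net growth.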

Tests used:
Assay in all cases: growth of human tumour cells (NCI), 48 h
786-0 renal = test system: 786-0 renal
A549 NSCLC = test system: A549 NSCLC
CCRF-CEM leukemia = test system: CCRF-CEM leukemia
HCC-2998 colon = test system: HCC-2998 colon
HCT-15 colon = test system: HCT-15 colon
HOP-92 NSCLC = test system: HOP-92 NSCLC
KM12 colon = test system: KM12 colon
MCF7 breast = test system: MCF7 breast
MDA-MB-231 breast = test system: MDA-MB-231 breast
SR leukemia = test system: SR leukemia

SMILES	GI50 (786-0 renal)	TGI (786-0 renal)	GI50 (A549 NSCLC)	TGI (A549 NSCLC)	GI50 (CCRF-CEM leukemia)	TGI (CCRF-CEM leukemia)	GI50 (HCC-2998 colon)	TGI (HCC-2998 colon)	GI50 (HCT-15 colon)	TGI (HCT-15 colon)	GI50 (HOP-92 NSCLC)	TGI (HOP-92 NSCLC)	GI50 (KM12 colon)	TGI (KM12 colon)	GI50 (MCF7 breast)	TGI (MCF7 breast)	GI50 (MDA-MB-231 breast)	TGI (MDA-MB-231 breast)	GI50 (SR leukemia)	TGI (SR leukemia)
COc1cc(/C=C2\C(=O)Nc3ccc(Br)cc32)cc(OC)c1OC	27.2 µM	> 100 µM	10.3 µM	> 100 µM	4.82 µM	> 100 µM	57.4 µM	> 100 µM	3.37 µM	> 100 µM	2.68 µM	24.8 µM	3.33 µM	> 92.4 µM	2.64 µM	> 100 µM	7.68 µM	> 52.9 µM	0.304 µM	3.08 µM
Cc1cc2c(-c3nc4ccccn4c3NC34CC5CC(CC(C5)C3)C4)c(O)c(O)cc2c(O)c1-c1c(C)cc2c(-c3nc4ccccn4c3NC34CC5CC(CC(C5)C3)C4)c(O)c(O)cc2c1O	0.932 µM	5.09 µM	0.255 µM	> 25 µM	0.115 µM	> 25 µM	1.13 µM	> 25 µM	0.466 µM	> 25 µM	0.616 µM	1.88 µM	0.11 µM	11.7 µM	0.175 µM	4.28 µM	0.763 µM	11.4 µM	0.854 µM	4.86 µM
NC(=O)c1c(NC(=O)c2cccc(C(F)(F)F)c2)sc2c1CCC(=O)C2	1.94 µM	> 100 µM	1.88 µM	> 100 µM	0.163 µM	–	2.59 µM	> 76.9 µM	0.321 µM	1.82 µM	0.985 µM	3.47 µM	0.394 µM	2.01 µM	0.203 µM	> 100 µM	0.379 µM	2.73 µM	0.424 µM	> 100 µM
COc1ccc2nc3cc(Cl)ccc3c(Nc3ccc(O)c(CN4CCCC4)c3)c2c1	1.83 µM	3.5 µM	1.99 µM	4.06 µM	3.06 µM	14.6 µM	1.67 µM	3.16 µM	2.6 µM	10.3 µM	3.92 µM	16 µM	3.13 µM	> 100 µM	1.32 µM	2.87 µM	1.66 µM	3.84 µM	0.534 µM	3.3 µM
O=C(Nc1nc2ccc(F)cc2s1)c1cccnc1Nc1ccc(Cl)cc1Cl	3.28 µM	12.2 µM	3.51 µM	16.1 µM	1.82 µM	12.6 µM	4.09 µM	18.3 µM	3.35 µM	20.3 µM	1.4 µM	5.15 µM	2.78 µM	9.54 µM	2.73 µM	13 µM	3.11 µM	14.4 µM	2.22 µM	8.23 µM
COc1cc(/C=C2/C(=O)N(C(=O)c3ccccc3O)N=C2C)ccc1O	–	> 100 µM	–	> 100 µM	–	> 100 µM	–	> 100 µM	–	> 100 µM	–	> 100 µM	–	> 100 µM	–	> 100 µM	–	> 100 µM	–	> 100 µM
C=C[C@@]1(C)CC(=O)[C@]2(O)[C@@]3(C)[C@@H](O)CCC(C)(C)[C@@H]3[C@H](O)[C@@H](OC(C)=O)[C@@]2(C)O1	–	> 100 µM	–	> 100 µM	–	> 100 µM	–	> 100 µM	–	> 100 µM	–	> 100 µM	–	> 100 µM	–	> 100 µM	–	> 100 µM	–	> 100 µM
CCOC(=O)C(=Cc1c(-c2ccccc2)[nH]c2ccccc12)C(=O)OCC	11.7 µM	37.2 µM	6.34 µM	24.5 µM	2.58 µM	9.75 µM	10.1 µM	22.6 µM	4.07 µM	38.4 µM	5.47 µM	> 29.8 µM	3.51 µM	12 µM	4.49 µM	18 µM	5.71 µM	34.8 µM	2.09 µM	9.43 µM
Cc1nc2cc(Nc3nc(Nc4ccc(F)cc4)nc(-c4ccc(Cl)cc4)n3)ccc2n1Cc1ccccc1	6.48 µM	52.3 µM	6.18 µM	36.9 µM	3.35 µM	> 100 µM	6.36 µM	> 100 µM	3.77 µM	> 100 µM	1.74 µM	23.7 µM	4.32 µM	> 100 µM	3.1 µM	> 100 µM	9.97 µM	> 100 µM	2.88 µM	9.55 µM
COc1ccc(-c2nn3ncccc3c2-c2ccnc(Nc3cccc(C(F)(F)F)c3)n2)cc1	9.98 µM	> 25 µM	9.38 µM	> 25 µM	6.73 µM	> 25 µM	5.33 µM	18.6 µM	7.97 µM	> 25 µM	3.03 µM	16.1 µM	9.33 µM	> 25 µM	7.42 µM	> 25 µM	8.12 µM	> 25 µM	13.5 µM	> 25 µM
COC12C=C/C(=C(/C(=O)OCc3csc(SC)n3)C(=O)CCCCCCCCC3(OC)C=C/C(=C(/C(=O)OCc4cnc(SC)s4)C(=O)CCCCCCCC1)O3)O2 (configuration not stated)	4.93 µM	26.1 µM	4.65 µM	> 100 µM	0.455 µM	> 100 µM	2.34 µM	5.11 µM	17 µM	> 100 µM	12.3 µM	32.3 µM	3.1 µM	> 100 µM	1.13 µM	> 100 µM	2.51 µM	26.2 µM	2.05 µM	> 100 µM
CCn1c(-c2nonc2N)nc2c(C#CC(C)(C)O)ncc(OC[C@@H]3CCCN3)c21	2.45 µM	> 25 µM	6.96 µM	> 25 µM	2.33 µM	> 25 µM	3.12 µM	> 25 µM	> 25 µM	> 25 µM	14.5 µM	> 25 µM	2.61 µM	18.5 µM	1.71 µM	9.73 µM	7.46 µM	> 25 µM	8.19 µM	> 20.2 µM
CCOC(=O)/N=c1\ssc(Cl)c1Cl	12.8 µM	> 100 µM	24.1 µM	73.8 µM	0.646 µM	> 100 µM	2.83 µM	5.39 µM	–	–	5.66 µM	> 100 µM	16.7 µM	35.9 µM	3.54 µM	16.8 µM	6.95 µM	28.7 µM	0.414 µM	> 100 µM
